Patent US12605354B2, “Azelaic acid esters in the treatment or prevention of dyslipidemia and associated conditions” (NEW FRONTIER LABS, LLC, priority 2020, dated 2026)
Marks after values point to notes of the source that are not given here.

Legend:
[1] = test system: overweight to obese males; assay: 21-day oral DEA study: blood lipid levels and lipid ratios; assay type: in vivo, human; details: for LDL/triglycerides / LDL/HDL / Triglycerides/HDL / Non-cholesterol HDL/HDL / Cholesterol, total/HDL / HDL cholesterol / LDL cholesterol / Non-cholesterol HDL / Triglycerides / Cholesterol, total: D21 post-treatment, 21 daily oral doses of 1 mg/kg, mean; for decrease of LDL/HDL: p=0.02; for Cholesterol/HDL, decrease / LDL/HDL, decrease: significant effect
Description: (§1) Seventeen subjects were recruited by sampling a large population at risk for T2D (according to convenience sample; a statistical method of drawing representative data) to measure the changes in glucose, lipid and insulin measurements after an OGTT after the subjects had been treated for 21 days.
(§2) The subjects were overweight to obese males with body mass indices (BMIs) ranging from 27.2 to 43.6 kg/m^2, glycated hemoglobin A1c (HbA1c) of 5.0-6.2% and insulin levels of 8.8-52 μU/mL. The study was conducted by Clinical Trials of Texas, Inc. in San Antonio, TX. The cohort represented a population at risk for the development of T2D. The study was restricted to male participants to control for the variability of insulin sensitivity associated with the menstrual cycle. The subjects received 21 daily oral doses (“q1d”) of 1 mg/kg DEA. An OGTT, in which 75 grams of glucose in a total volume of 300 mL was administered orally to subjects, was performed on Day 0 and again on Day 21 and glucose measurements performed at −30, −5 and 0 min, insulin measurements at −30 and 0 min, and both glucose measurements and insulin measurements at 30, 60, 90, 120 and 180 minutes, where “0 min” is the time at which the glucose solution was administered. The 180-minute time point was selected to gain an early insight into the possible signal of drug action. Blood lipid levels (triglycerides, cholesterol, HDL, non-cholesterol HDL and LDL) were measured before the onset of treatment on Day 0 and again on Day 21. The error of the assays was <5% [36].
(§3) The results of the various marker measurements at Day 0 and Day 21 were compared using both the paired Students T-test and the Wilcoxon signed rank test. The results of both calculations are provided; the p-value from the paired Student T-test first, followed by the p-value from the Wilcoxon signed rank test. Generalized Estimating Equations and bootstrapping were used to verify the results generated with other methods. Fasting glucose was calculated as the average of the −30, −5, and 0-minute measurements and fasting insulin was calculated as the average of the −30- and 0-minute measurements. Spearman's correlation coefficient was calculated for the relationship between A1c and pre-treatment fasting plasma glucose versus post-treatment fasting plasma glucose. Area under the curve (AUC) was calculated over the 180-minute time span of the OGTT. All analyses were performed using the open language engine R 3.4.4. Statistical significance was at the α=0.05 level.

[2] = test system: overweight to obese males; assay: 21-day oral DEA study: fasting insulin and OGTT insulin; assay type: in vivo, human; details: for AUC insulin: 180-minute OGTT, in µU·min/mL (unit assumed); for AUC insulin / Fasting insulin: D21 post-treatment, 21 daily oral doses of 1 mg/kg, mean
Description: as §1, §2, §3

SMILES: CCOC(=O)CCCCCCCC(=O)OCC [DEA, diethyl azelate]
- HDL, increase ([1]; 21-day study, group not stated): 8.7% increase
- LDL/triglycerides ([1]; All (n = 17), D0 0.998): 0.893
- LDL/HDL ([1]; All (n = 17), D0 3.442, P < 0.05): 3.201*
- Triglycerides/HDL ([1]; All (n = 17), D0 3.761): 3.907
- Non-cholesterol HDL/HDL ([1]; All (n = 17), D0 3.799, P < 0.05): 3.549*
- Cholesterol, total/HDL ([1]; All (n = 17), D0 4.806, P < 0.05): 4.553*
- HDL cholesterol ([1]; All (n = 17), D0 32.765): 34.412 mg/dL
- LDL cholesterol ([1]; All (n = 17), D0 93.765): 89.765 mg/dL
- Non-cholesterol HDL ([1]; All (n = 17), D0 117.412): 114.471 mg/dL
- Triglycerides ([1]; All (n = 17), D0 118.588): 124 mg/dL
- Cholesterol, total ([1]; All (n = 17), D0 150.118): 148.882 mg/dL
- LDL/triglycerides ([1]; FPG <100 mg/dL (n = 8), D0 0.861): 0.887
- LDL/HDL ([1]; FPG <100 mg/dL (n = 8), D0 3.082): 2.892
- Non-cholesterol HDL/HDL ([1]; FPG <100 mg/dL (n = 8), D0 3.309): 3.098
- Triglycerides/HDL ([1]; FPG <100 mg/dL (n = 8), D0 3.693): 3.521
- Cholesterol, total/HDL ([1]; FPG <100 mg/dL (n = 8), D0 4.311): 4.089
- HDL cholesterol ([1]; FPG <100 mg/dL (n = 8), D0 31.25): 31.5 mg/dL
- LDL cholesterol ([1]; FPG <100 mg/dL (n = 8), D0 101): 90.75 mg/dL
- Non-cholesterol HDL ([1]; FPG <100 mg/dL (n = 8), D0 111.778): 114.333 mg/dL
- Triglycerides ([1]; FPG <100 mg/dL (n = 8), D0 122.889): 127.667 mg/dL
- Cholesterol, total ([1]; FPG <100 mg/dL (n = 8), D0 154.875): 146.125 mg/dL
- LDL/triglycerides ([1]; FPG >100 mg/dL (n = 9), D0 1.152): 0.9
- Triglycerides/HDL ([1]; FPG >100 mg/dL (n = 9), D0 3.837): 4.342
- LDL/HDL ([1]; FPG >100 mg/dL (n = 9), D0 3.847): 3.549
- Non-cholesterol HDL/HDL ([1]; FPG >100 mg/dL (n = 9), D0 4.349): 4.057
- Cholesterol, total/HDL ([1]; FPG >100 mg/dL (n = 9), D0 5.362): 5.075
- HDL cholesterol ([1]; FPG >100 mg/dL (n = 9), D0 34.111): 37 mg/dL
- LDL cholesterol ([1]; FPG >100 mg/dL (n = 9), D0 105): 103.444 mg/dL
- Triglycerides ([1]; FPG >100 mg/dL (n = 9), D0 113.75): 119.875 mg/dL
- Non-cholesterol HDL ([1]; FPG >100 mg/dL (n = 9), D0 123.75): 114.625 mg/dL
- Cholesterol, total ([1]; FPG >100 mg/dL (n = 9), D0 145.889): 151.333 mg/dL
- LDL/triglycerides ([1]; High A1c (n = 9), D0 0.954): 0.972
- LDL/HDL ([1]; High A1c (n = 9), D0 3.173, P < 0.01): 2.862**
- Non-cholesterol HDL/HDL ([1]; High A1c (n = 9), D0 3.446): 3.108
- Triglycerides/HDL ([1]; High A1c (n = 9), D0 3.481): 3.096
- Cholesterol, total/HDL ([1]; High A1c (n = 9), D0 4.456, P < 0.05): 4.1*
- HDL cholesterol ([1]; High A1c (n = 9), D0 37.889): 41.222 mg/dL
- LDL cholesterol ([1]; High A1c (n = 9), D0 105): 103.444 mg/dL
- Triglycerides ([1]; High A1c (n = 9), D0 129): 125.222 mg/dL
- Non-cholesterol HDL ([1]; High A1c (n = 9), D0 130.667): 128.444 mg/dL
- Cholesterol, total ([1]; High A1c (n = 9), D0 168.444): 169.667 mg/dL
- LDL/triglycerides ([1]; Low A1c (n = 8), D0 1.048): 0.804
- LDL/HDL ([1]; Low A1c (n = 8), D0 3.744): 3.582
- Triglycerides/HDL ([1]; Low A1c (n = 8), D0 4.076): 4.82
- Non-cholesterol HDL/HDL ([1]; Low A1c (n = 8), D0 4.196): 4.046
- Cholesterol, total/HDL ([1]; Low A1c (n = 8), D0 5.2): 5.062
- HDL cholesterol ([1]; Low A1c (n = 8), D0 27): 26.75 mg/dL
- LDL cholesterol ([1]; Low A1c (n = 8), D0 81.125): 74.375 mg/dL
- Non-cholesterol HDL ([1]; Low A1c (n = 8), D0 102.5): 98.75 mg/dL
- Triglycerides ([1]; Low A1c (n = 8), D0 106.875): 122.625 mg/dL
- Cholesterol, total ([1]; Low A1c (n = 8), D0 129.5): 125.5 mg/dL
- LDL, decrease ([1]; all): 4.3%
- decrease of LDL/HDL ([1]; all 17 subjects, p=0.011): 6.46%
- HDL and non-cholesterol HDL ([1]; all subjects): non-significantly affected by the treatment
- Cholesterol/HDL, decrease ([1]; all): 5.4%
- LDL/HDL, decrease ([1]; all): 6.5%
- effect on total cholesterol, LDL, HDL, non-cholesterol HDL, and triglycerides considered singly ([1]; entire cohort): did not exert statistically significant effects on any endpoint considered singly
- decrease of the ratio of total cholesterol/HDL ([1]; entire cohort, p=0.025, p=0.041): 5.36%
- decrease of non-cholesterol HDL/HDL ratio ([1]; entire cohort, p=0.025, p=0.057): 6.6%
- LDL, decrease ([1]; high A1c): 2%
- decrease of median total cholesterol ([1]; high A1c group): 1 mg/dL
- decrease of the ratio of triglycerides/HDL ([1]; high A1c group): 11%
- ratio of triglycerides/HDL post-treatment ([1]; high A1c group, from 3.4): 3.0
- LDL trend ([1]; high A1c group, less so in the low A1c group, normal <100 mg/dL): decreasing trend toward normal values
- decrease of the ratio of total cholesterol/HDL ([1]; high A1c group, p=0.017, p=0.068): 7.99%
- decrease of non-cholesterol HDL/HDL ratio ([1]; high A1c group, p=0.025, p=0.074): 9.8%
- decrease of LDL/HDL ([1]; high A1c subjects, 21-day study (3 weeks), p=0.008): 9.8%
- Cholesterol/HDL, decrease ([1]; high A1c): 8%
- LDL/HDL, decrease ([1]; high A1c): 9.8%
- elevated triglycerides post-treatment ([1]; including two high A1c subjects with abnormal triglycerides >150 before treatment): decreased post-treatment to normal levels in 8 subjects
- increase of the ratio of triglycerides/HDL ([1]; low A1c): 15%
- increase of median total cholesterol ([1]; low A1c group): 9 mg/dL
- ratio of triglycerides/HDL post-treatment ([1]; low A1c, from 3.9): 4.6
- abnormal total cholesterol (>200 mg/dL) post-treatment ([1]; two subjects in the high A1c group): decreased or returned to normal levels
- AUC insulin ([2]; All (n = 17), D0 24963): 26834
- AUC insulin ([2]; FPG <100 mg/dL (n = 8), D0 22215): 27461
- AUC insulin ([2]; FPG >100 mg/dL (n = 9), D0 27405): 26275
- AUC insulin ([2]; High A1c (n = 9), D0 27055): 25988
- AUC insulin ([2]; Low A1c (n = 8), D0 22609): 27785
- Fasting insulin ([2]; All (n = 17), D0 26.082): 25.894 μU/mL
- Fasting insulin ([2]; FPG <100 mg/dL (n = 8), D0 20.212): 20.95 μU/mL
- Fasting insulin ([2]; FPG >100 mg/dL (n = 9), D0 31.3): 30.289 μU/mL
- Fasting insulin ([2]; High A1c (n = 9), D0 30.411): 28.9 μU/mL
- Fasting insulin ([2]; Low A1c (n = 8), D0 21.212): 22.512 μU/mL
- decrease of fasting insulin ([2]; all 17 subjects, p=0.916, p=0.963): 0.7 μU/mL
- decrease of median insulin area under the curve (AUC) ([2]; high A1c group, not statistically significant): 1663.5
- decrease of fasting insulin ([2]; high A1c group, p=0.916, p=0.963): 0.84 μU/mL
- decrease of fasting insulin ([2]; high fasting plasma glucose group, p=0.752, p=0.855): 2.97 μU/mL
- increase of median insulin area under the curve (AUC) ([2]; low A1c group, not statistically significant): 3380.25
- decrease of fasting insulin ([2]; remaining 16 subjects (subject #1 excluded), p=0.007, 0.009): 13.4%
- average fasting insulin post-treatment ([2]; subject #1, outlier in the high A1c group, increased from 77.45 pre-treatment): 96.15 μU/mL
- median decrease of fasting insulin ([2]; subset of 8 subjects (#2-4, 8-11, and 13)): 42.5%
- decrease of mean fasting insulin ([2]; subset of 8 subjects (#2-4, 8-11, and 13), p=0.004, p=0.008): 37.8%
